Data published in US20260200849A1, “CATIONIC LIPIDS AND PREPARATION METHOD THEREOF” (RiboX Therapeutics HK Limited, priority 2024, published 2026).
Several values for one entry are separate records, joined by “and”; a condition that tells them apart may be missing. Equal entries are not always repeated.

How the values were obtained:
[1] = In vivo lipid metabolism by IV: ionizable lipid concentration in plasma and liver by LC-MS/MS; parameters: species or system Sprague-Dawley (SD) rats; details: IV 0.15 mg/kg RNA-LNPs (hEPO), male SD rats, individual animals N=3
Protocol: In Vivo Lipid Metabolism by IV 7-8 week old, male Sprague-Dawley (SD) rats (N=3) were injected with 0.15 mg*kg−1 of RNA-LNPs encoding for hEPO by intravenous injection. At 1-/6-/96-/168-hours post injection, about 100 μL blood will be harvested and immediately added to the EDTAK2 containing tube. Place on wet ice and then centrifuged at 3000 g×5 min to obtain plasma. 30 μL plasma will be aliquoted to the 1.5 mL tubes. At terminal 6-/168-hours post injection, the rats will be euthanized with CO2, hemorrhaged immediately with cardiac puncture, respectively. The livers were harvested, weighed and washed with saline, then put into 50 ml centrifuge tube placed in liquid nitrogen, then transferred into wet ice, and finally stored at −80° C. immediately. Both plasma and liver samples were used for ionizable lipid concentration quantification by LC-MS/MS. The lower limit of quantitation (LLOQ) is 1 ng/mL in plasma or 11 ng/g in liver. BQL—Below the lower limit of quantitation (LLOQ).

[2] = tested on: Hep G2 cells; test: In vitro toxicity: Hep G2 cell viability by CellTiter-Glo; type: cell-based; details: Formulation No. 001, RNA No. 331, 1 μg/mL RNA-LNPs, 72 hours post transfection, cell only = 100%
Protocol: 2E5 Hep G2 cells were transfected with 1 μg/mL RNA-LNPs. At 72 hours post transfection, cell viability (2-well repeat) was determined with the CellTiter-Glo® reagent kit, according to the kit protocol, measured by a luminometer. Cell only as control (100%).
The cell viability was calculated according to the following formula: […]

[3] = tested on: IL-6; test: In vivo tolerability by IV: serum IL-6 by Luminex; parameters: species or system C57BL/6J mice; details: Formulation No. 001, RNA No. 331, male C57BL/6J mice, 1.0 mg*kg/1 intravenous; for IL-6 at 2 h: 2 hours post injection; for IL-6 at 24 h: 24 hours post injection
Summary of the method: (§1)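 Male C57BL/6J mice aged 6-8 weeks (N=3) received 1.0 mg*kg−1 firefly-luciferase RNA-LNPs intravenously, with PBS as negative control. Serum taken at 2 and 24 h post-injection was assayed for MCP-1 and IL-6 by Luminex.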

[4] = tested on: MCP-1; test: In vivo tolerability by IV: serum MCP-1 by Luminex; parameters: species or system C57BL/6J mice; details: Formulation No. 001, RNA No. 331, male C57BL/6J mice, 1.0 mg*kg/1 intravenous; for MCP-1 at 2 h: 2 hours post injection; for MCP-1 at 24 h: 24 hours post injection
Summary of the method: as §1

[5] = tested on: C57BL/6J mice; test: In vivo expression by IV, 1.0 mg/kg luciferase RNA-LNPs, whole-body and organ IVIS luminescence; details: Formulation No. 001, RNA No. 331; male C57BL/6J mice, 1.0 mg*kg−1 intravenous, 24-hours post injection
Summary of the method: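 Male C57BL/6J mice, 6-8 weeks old (N=3), received 1.0 mg*kg−1 firefly-luciferase RNA-LNPs IV. At 24 h post-dose, luciferin (15 mg/ml) was given IP, and whole-body, liver, spleen, kidney, small and large intestine luminescence was imaged by IVIS.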

[6] = tested on: Balb/c mice; test: In vivo expression by IV, 0.05 mg/kg luciferase RNA-LNPs, IVIS luminescence; details: Formulation No. 001, RNA No. 331; female Balb/c mice, 0.05 mg*kg−1 intravenous, 24-hours post injection
Summary of the method: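 IVIS bioluminescence was read after IP luciferin (15 mg/ml): whole-body at 24 and 72 h, or whole-body/liver/spleen at 24 h. Dosing was a single IV injection of 0.05 mg*kg−1 RNA-LNPs encoding firefly luciferase into 7-8 week old female Balb/c mice, N=3.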

[7] = RNA encapsulation efficacy (EE %) by Quant-IT Ribogreen kit; type: physicochemical; details: LNP
Protocol: (§2) The LNP size and polydispersity index (PDI), determined by dynamic light scattering (DLS), and zeta potential were measured by a Zetasizer machine (Malvern). RNA concentration and encapsulation efficacy (EE %) were analyzed by the Quant-IT Ribogreen kit by calculating the percentage encapsulation at 100%—(RNA-LNPs/RNA-LNPs with Triton X-100).

[8] = LNP size and polydispersity index (PDI) by dynamic light scattering (Zetasizer); type: physicochemical; details: for Size (nm): Formulation No. 001 (Ionizable lipid:DSPC:cholesterol:DMG-PEG2000 = 50:10:38.5:1.5, N/P 6), RNA No. 331
Protocol: as §2

[9] = tested on: Hep G2 cells; test: In vitro expression: luciferase activity in Hep G2 cells transfected with RNA-LNPs; type: cell-based; details: Formulation No. 001, RNA No. 331 (firefly-luciferase), 100 ng/mL RNA-LNPs, 72 hours post transfection
Protocol: 2E5 Hep G2 cells were transfected with 100 ng/mL of RNA-LNPs encoding for firefly-luciferase. At 72 hours post transfection, the cells were washed and lysed. The luciferase expression (2-well repeat) was determined in the cell lysates with the luciferase assay reagent kit (Promega), according to the kit protocol, luciferase activity was measured by a luminometer.

[10] = Formulation No. 001, RNA No. 019 (hEPO)
[11] = Formulation No. 001, RNA No. 331

EE (%) [7, 11] [%] | Size (nm) [8] [nm] | PDI [8, 11] | SMILES | In vitro cell viability (%) (Mean) [2] | IL-6 at 2 h [3] [pg/mL] | IL-6 at 24 h [3] [pg/mL] | MCP-1 at 2 h [4] [pg/mL] | MCP-1 at 24 h [4] [pg/mL] | Kidney (p/s) [5] [p/s] | Large intestine (p/s) [5] [p/s] | Liver (p/s) [5] [p/s] | Small intestine (p/s) [5] [p/s] | Spleen (p/s) [5] [p/s] | Whole body (p/s) [5] [p/s] | Liver (p/s) (Mean) [6] | Spleen (p/s) (Mean) [6] | Whole body (p/s) (Mean) [6] | In vitro Expression (Mean) [9] | other results
90.24 | 78.20 | 0.05 | CCCCCCCCCCCOC(=O)CCCCCOC(=O)C(COC(=O)NCCN1CCCCCC1)NC(=O)OCCCCCCCCOC(=O)C(CCCCCC)CCCCCCCC (stereo not shown) [Lipid 924] | 89.34 | 47.1 | 5.9 | 1390 | 207 | 3.17E+07 | 3.25E+08 | 5.23E+09 | 7.18E+08 | 1.13E+09 | 4.40E+09 | 9.02E+08 | 2.37E+08 | 3.08E+09 | 6.15E+05 | Plasma (ng/mL), ionizable lipid concentration ([1]; 1 h post injection): 5572 ng/mL and 3130 ng/mL and 7622 ng/mL; Liver (ng/g), ionizable lipid concentration ([1]; 6 h post injection): 1864 ng/g and 1834 ng/g; Plasma (ng/mL), ionizable lipid concentration ([1]; 6 h post injection): 2.59 ng/mL and 3.41 ng/mL and 298 ng/mL; concentration at 6 h ([1]; male, Sprague-Dawley, rat, liver, iv, 0.15 mg/kg, 6 h post injection, read-out: Liver (ng/g), ionizable lipid concentration): 1410 ng/g; EE (%) [7, 10]: 90.41%; PDI [8, 10]: 0.16; Size [8, 10]: 87.04 nm
92.11 | 64.18 | 0.02 | CCCCCCCC/C=C\CCCCCCCC(=O)NC(COC(=O)NCCN1CCCCC1)C(=O)OCCCCCC(=O)OCC(CCCCCCCC)CCCCCCCCCC (stereo not shown) [Lipid 792] | 81.74 | 25.9 | 6.86 | 1620 | 216 | 3.20E+07 | 8.04E+07 | 2.74E+09 | 5.01E+08 | 3.20E+08 | 2.76E+09 | 2.90E+08 | 1.01E+08 | 2.18E+09 | 8.10E+05 | 
95.49 | 91.09 | 0.13 | CCCCC/C=C\C/C=C\CCCCCCCCOC(=O)NC(COC(=O)NCCN1CCCCCC1)C(=O)OCCCCCCCCCC(=O)OCCCCCCC (stereo not shown) [Lipid 959] | 96.03 | 78.7 | 1.8 | 1760 | 176 | 1.10E+07 | 3.10E+07 | 1.10E+09 | 1.43E+08 | 4.52E+08 | 7.04E+08 | 1.07E+09 | 2.04E+08 | 3.16E+09 | 2.95E+05 | 
96.96 | 69.88 | 0.05 | CCCCCCCCC(CCCCCC)C(=O)OCCCCCCCCOC(=O)NC(COC(=O)NCCN(C)C)C(=O)OCCCCCCCCOC(=O)C(CCCCCC)CCCCCCCC (stereo not shown) [Lipid 883] | 93.23 | 16.4 | 5.01 | 1860 | 220 | 6.37E+06 | 3.50E+07 | 3.22E+09 | 1.46E+08 | 2.19E+08 | 1.65E+09 | 1.59E+08 | 2.09E+07 | 1.60E+09 | 2.82E+05 | 
87.36 | 75.43 | 0.01 | CCCCCCCCC(CCCCCC)C(=O)OCCCCCCCCOC(=O)NC(COC(=O)NCCN1CCCCC1)C(=O)OCCCCCCCCCCC(=O)OCCCCCC (stereo not shown) [Lipid 928] | 95.03 | 11.9 | 30.5 | 574 | 74.9 | 8.93E+06 | 2.23E+07 | 2.41E+09 | 1.61E+08 | 3.25E+08 | 2.17E+09 | 2.35E+08 | 4.80E+07 | 9.65E+08 | 4.72E+05 | 
87.49 | 70.33 | 0.04 | CCCCCCCCCCCOC(=O)NC(COC(=O)NCCN1CCCCC1)C(=O)OCCCCCCCC(=O)OC(CCCCCCCC)CCCCCCCC (stereo not shown) [Lipid 914] | 79.98 | 4.6 | 2.77 | 452 | 148 | 1.72E+07 | 4.60E+07 | 1.75E+09 | 4.42E+08 | 2.11E+08 | 2.46E+09 | 3.77E+08 | 5.60E+07 | 1.19E+09 | 1.56E+06 | 
90.23 | 104.00 | 0.19 | CCCCC/C=C\C/C=C\CCCCCCCCOC(=O)NC(COC(=O)NCCN1CCCCCC1)C(=O)OCCCCCC(=O)OCCCCCCCCCCC (stereo not shown) [Lipid 939] | 95.74 | 4280 | 9.43 | 2440 | 956 | 1.21E+07 | 1.70E+08 | 5.86E+07 | 4.96E+08 | 1.18E+08 | 3.50E+09 | 2.92E+08 | 1.74E+08 | 1.17E+09 | 3.08E+05 | 
